Results from the NIST ThermoML archive (doi:10.1016/j.fluid.2011.04.001).
Numbers after ± are expanded uncertainties.

Columns and labels:
[1] = xn = mol fraction of the nth substance listed; conditions: 298.15 K, 101 kPa, Liquid, Vibrating tube method
[2] = refractive index (Na D-line) (dimensionless); conditions: 298.15 K; 101.33 kPa; Liquid; Standard Abbe refractometry
[3] = 298.15 K; 101.33 kPa; Liquid; Vibrating tube method

Work on `CCOS(=O)(=O)[O-].CCn1cc[n+](C)c1` [1-ethyl-3-methylimidazolium ethyl sulfate] + CCCCCC yielded a mass density ([1]; x2 = 0.015) of 1234.45 ± 1.5 kg/m3.
`CCOS(=O)(=O)[O-].CCn1cc[n+](C)c1` [1-ethyl-3-methylimidazolium ethyl sulfate] + Cc1ccccc1C showed a mass density ([1]; x2 = 0.142) of 1207.74 ± 1.5 kg/m3.
Molecule `CCOS(=O)(=O)[O-].CCn1cc[n+](C)c1` [1-ethyl-3-methylimidazolium ethyl sulfate] + Cc1ccc(C)cc1 has a mass density ([1]; x2 = 0.123) of 1210.97 ± 1.5 kg/m3.
`CCOS(=O)(=O)[O-].CCn1cc[n+](C)c1` [1-ethyl-3-methylimidazolium ethyl sulfate] + Cc1cccc(C)c1 gave a mass density ([1]; x2 = 0.119) of 1212.69 ± 1.5 kg/m3.
Work on `CCOS(=O)(=O)[O-].CCn1cc[n+](C)c1` [1-ethyl-3-methylimidazolium ethyl sulfate] yielded a refractive index [2] of 1.50591 ± 0.0004 and a mass density [3] of 1237.23 ± 0.43 kg/m3.
